In ChEMBL document CHEMBL1201862, “PubChem BioAssay data set” (2004):
The source made the active and inactive calls.

Experiments:
[1] = target: T1, Short transient receptor potential channel 4 (Mus musculus, UniProt Q9QUQ5); experiment: mouse TRPC4 channel activators, dose response, cell-based, HEK293 TRPC4/mu-opioid, Fluo-4 calcium (AID 434937); type: functional
T1 sequence (Q9QUQ5 whole entry): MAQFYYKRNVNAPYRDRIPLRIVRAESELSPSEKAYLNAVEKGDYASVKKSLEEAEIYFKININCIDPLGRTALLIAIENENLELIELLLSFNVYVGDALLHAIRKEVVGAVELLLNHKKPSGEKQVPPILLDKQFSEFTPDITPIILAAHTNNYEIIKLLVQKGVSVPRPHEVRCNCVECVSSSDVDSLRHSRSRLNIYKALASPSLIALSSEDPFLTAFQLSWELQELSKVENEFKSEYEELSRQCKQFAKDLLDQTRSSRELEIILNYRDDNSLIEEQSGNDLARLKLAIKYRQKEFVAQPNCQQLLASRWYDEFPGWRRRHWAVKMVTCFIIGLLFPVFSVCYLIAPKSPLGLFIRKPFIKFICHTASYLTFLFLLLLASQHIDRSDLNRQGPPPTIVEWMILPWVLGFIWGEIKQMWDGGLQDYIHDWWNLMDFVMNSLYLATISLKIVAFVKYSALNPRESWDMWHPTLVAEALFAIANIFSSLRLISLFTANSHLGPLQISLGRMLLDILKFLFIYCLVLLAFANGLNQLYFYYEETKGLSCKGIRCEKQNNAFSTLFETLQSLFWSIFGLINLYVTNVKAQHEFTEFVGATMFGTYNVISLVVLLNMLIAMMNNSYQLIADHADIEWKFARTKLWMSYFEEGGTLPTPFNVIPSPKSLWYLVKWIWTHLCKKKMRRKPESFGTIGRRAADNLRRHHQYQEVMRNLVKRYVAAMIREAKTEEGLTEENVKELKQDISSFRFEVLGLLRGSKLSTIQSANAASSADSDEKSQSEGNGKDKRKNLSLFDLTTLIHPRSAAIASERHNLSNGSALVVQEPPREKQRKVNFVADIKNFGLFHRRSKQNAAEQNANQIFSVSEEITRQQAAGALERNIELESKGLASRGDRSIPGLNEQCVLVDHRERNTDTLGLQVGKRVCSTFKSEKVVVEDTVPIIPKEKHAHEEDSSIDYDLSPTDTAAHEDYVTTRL

[2] = target: T1, Short transient receptor potential channel 4; experiment: mouse TRPC4 channel inhibitors, dose response, cell-based, HEK293 TRPC4/mu-opioid, Fluo-4 calcium (AID 434942); type: functional;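 also: potency of inhibitors blocking the TRPC4 calcium response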
[3] = target: Glyceraldehyde-3-phosphate dehydrogenase (Homo sapiens, UniProt P04406)
[4] = NIH-3T3 fibroblast cytotoxicity, dose response, cytotoxicity control, cell-based, fluorescence, Alamar Blue, secondary assay (AID 2327); type: functional;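 also: NIH-3T3 mouse fibroblasts cultured with fluconazole at 8 µg/mL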
[5] = C. albicans growth with fluconazole, confirmation, fluorescence, retest (AID 2467); type: functional, cell-based
[6] = target: T2, Mannose-6-phosphate isomerase (Homo sapiens, UniProt P34949); experiment: human PMI inhibitors, high substrate, primary screen, biochemical, fluorescence intensity, high mannose 6-phosphate (AID 1220)
T2 sequence (P34949 whole entry): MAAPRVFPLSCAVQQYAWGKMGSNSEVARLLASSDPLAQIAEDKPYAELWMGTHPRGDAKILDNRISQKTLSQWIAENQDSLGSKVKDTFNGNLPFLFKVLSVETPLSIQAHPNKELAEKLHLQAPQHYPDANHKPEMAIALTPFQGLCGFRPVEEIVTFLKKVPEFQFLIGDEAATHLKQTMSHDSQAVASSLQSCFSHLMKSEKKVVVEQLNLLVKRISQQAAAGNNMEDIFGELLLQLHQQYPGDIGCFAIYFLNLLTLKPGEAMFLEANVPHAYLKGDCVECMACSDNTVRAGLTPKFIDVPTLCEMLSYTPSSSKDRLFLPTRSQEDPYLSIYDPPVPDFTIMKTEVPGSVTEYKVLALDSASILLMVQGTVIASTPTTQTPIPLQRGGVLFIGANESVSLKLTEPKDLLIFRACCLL

[7] = inhibitors of clade B AD8 Env fusion, dose response, cell-based, cherry-pick (AID 652062); type: functional;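 also: luciferase signal from cell-cell fusion driven by HIV-1 clade B AD8 Env; potency is for inhibitors of fusion seen as a drop in luminescence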
Paired box protein Pax-8 = Paired box protein Pax-8 (Homo sapiens, UniProt Q06710); experiment: inhibitors of PAX8-driven TPO luciferase reporter, dose response, RMG-I cells, cherry-pick (AID 687027); type: functional, cell-based;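 also: luciferase reporter driven by Pax8 target thyroperoxidase promoter measured by SteadyGlo luminescence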
[8] = target: Luciferin 4-monooxygenase (Photinus pyralis, UniProt P08659); experiment: firefly luciferase enzyme inhibitors, dose response, biochemical, luminescence (AID 1891)
Cytochrome P450 2C9 = Cytochrome P450 2C9 (Homo sapiens, UniProt P11712)
[9] = Luminescence Cell-Based Dose Confirmation HTS to Identify Inhibitors of Platelet Dense Granule Release. [Related pubchem assays: 1663 (Primary HTS), 1678 (Summary of Project)]; type: functional
Cytochrome P450 1A2 = target: T3, Cytochrome P450 1A2 (Homo sapiens, UniProt P05177);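 also: PubChem cytochrome P450 panel assay, CYP1A2 panel member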
T3 sequence (P05177 whole entry): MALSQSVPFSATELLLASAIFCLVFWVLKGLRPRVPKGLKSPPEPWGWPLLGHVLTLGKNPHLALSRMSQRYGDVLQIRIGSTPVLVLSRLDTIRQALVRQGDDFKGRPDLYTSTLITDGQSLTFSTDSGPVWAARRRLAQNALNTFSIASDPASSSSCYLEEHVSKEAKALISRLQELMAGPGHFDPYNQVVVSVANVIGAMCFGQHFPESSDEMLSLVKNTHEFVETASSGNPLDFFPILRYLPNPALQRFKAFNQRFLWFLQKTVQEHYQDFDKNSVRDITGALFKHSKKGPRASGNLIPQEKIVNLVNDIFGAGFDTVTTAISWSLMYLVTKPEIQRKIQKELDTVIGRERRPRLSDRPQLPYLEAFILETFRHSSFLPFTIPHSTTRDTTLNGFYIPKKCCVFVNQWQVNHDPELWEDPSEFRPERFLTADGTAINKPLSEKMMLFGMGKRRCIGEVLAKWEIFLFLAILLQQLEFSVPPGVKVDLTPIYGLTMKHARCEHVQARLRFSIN

Cytochrome P450 2C19 = Cytochrome P450 2C19 (Homo sapiens, UniProt P33261); experiment: Cytochrome panel assay with activity outcomes. Panel member name: p450-cyp2c19 Compounds with AC50 equal or less than 10 uM are considered active; type: functional; conditions: read-out: AC50
[10] = target: T4, Corticotropin-releasing factor receptor 2/Corticotropin-releasing factor-binding protein (Homo sapiens, UniProt P24387+Q13324); experiment: activators of CRF receptor 2 with binding protein – uHTS hits, confirmation (AID 602473); type: functional; conditions: read-out: EC50_Mean
T4 sequence (Q13324 whole entry): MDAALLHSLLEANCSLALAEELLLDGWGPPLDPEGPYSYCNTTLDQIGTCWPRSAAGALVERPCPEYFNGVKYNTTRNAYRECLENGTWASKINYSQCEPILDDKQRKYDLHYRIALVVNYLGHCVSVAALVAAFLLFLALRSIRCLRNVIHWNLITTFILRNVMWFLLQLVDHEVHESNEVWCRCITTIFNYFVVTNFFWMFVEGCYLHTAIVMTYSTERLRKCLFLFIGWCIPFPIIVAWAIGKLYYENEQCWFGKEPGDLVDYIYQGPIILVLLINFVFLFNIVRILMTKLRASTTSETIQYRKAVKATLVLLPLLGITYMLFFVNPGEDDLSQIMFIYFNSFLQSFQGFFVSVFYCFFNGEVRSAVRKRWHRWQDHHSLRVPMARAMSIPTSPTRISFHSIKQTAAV
T4 sequence (P24387 whole entry): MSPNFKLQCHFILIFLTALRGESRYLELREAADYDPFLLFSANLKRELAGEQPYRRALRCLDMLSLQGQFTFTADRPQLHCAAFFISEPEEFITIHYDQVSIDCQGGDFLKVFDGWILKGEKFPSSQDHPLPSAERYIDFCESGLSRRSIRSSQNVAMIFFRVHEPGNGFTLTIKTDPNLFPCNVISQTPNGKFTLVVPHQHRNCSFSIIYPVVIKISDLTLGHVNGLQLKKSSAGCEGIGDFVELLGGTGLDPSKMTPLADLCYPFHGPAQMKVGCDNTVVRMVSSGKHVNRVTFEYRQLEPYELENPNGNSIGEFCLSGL

[11] = target: T5, Heat shock factor protein 1 (Mus musculus, UniProt P38532); experiment: HSF1 potentiators in luciferase reporter cells, confirmation, cell-based, NIH3T3, luminescence, dose retest (AID 435004); type: functional;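 also: stress induced by proteasome inhibitor MG132 added 30 min after compound; luciferase reporter driven by HSF1 response element in NIH3T3 cells; actives raise luminescence as potentiators of the MG132 stress response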
T5 sequence (P38532 whole entry): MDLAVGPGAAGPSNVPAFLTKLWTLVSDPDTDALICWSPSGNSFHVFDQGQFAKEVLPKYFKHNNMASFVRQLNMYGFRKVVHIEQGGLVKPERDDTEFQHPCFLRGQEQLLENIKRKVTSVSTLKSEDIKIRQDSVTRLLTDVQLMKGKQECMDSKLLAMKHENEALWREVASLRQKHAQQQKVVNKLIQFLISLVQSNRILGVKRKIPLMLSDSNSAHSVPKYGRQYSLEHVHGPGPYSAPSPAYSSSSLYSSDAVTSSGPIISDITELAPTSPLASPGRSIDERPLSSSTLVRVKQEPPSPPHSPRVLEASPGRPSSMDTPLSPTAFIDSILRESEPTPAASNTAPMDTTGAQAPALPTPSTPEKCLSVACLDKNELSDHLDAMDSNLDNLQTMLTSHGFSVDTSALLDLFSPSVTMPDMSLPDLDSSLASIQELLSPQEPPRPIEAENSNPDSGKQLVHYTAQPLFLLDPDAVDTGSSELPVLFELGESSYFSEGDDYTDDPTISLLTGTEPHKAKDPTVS

Sequence of Glyceraldehyde-3-phosphate dehydrogenase (P04406 whole entry): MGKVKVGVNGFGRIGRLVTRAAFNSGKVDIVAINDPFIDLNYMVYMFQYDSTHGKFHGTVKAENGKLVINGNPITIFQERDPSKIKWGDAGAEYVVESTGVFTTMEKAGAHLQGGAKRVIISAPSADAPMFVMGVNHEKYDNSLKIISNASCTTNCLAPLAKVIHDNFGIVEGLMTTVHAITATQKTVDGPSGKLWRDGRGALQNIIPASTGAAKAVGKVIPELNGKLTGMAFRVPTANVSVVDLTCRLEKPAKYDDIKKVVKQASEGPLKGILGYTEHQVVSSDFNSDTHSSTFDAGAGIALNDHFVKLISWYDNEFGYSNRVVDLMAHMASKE
Sequence of Paired box protein Pax-8 (Q06710 whole entry): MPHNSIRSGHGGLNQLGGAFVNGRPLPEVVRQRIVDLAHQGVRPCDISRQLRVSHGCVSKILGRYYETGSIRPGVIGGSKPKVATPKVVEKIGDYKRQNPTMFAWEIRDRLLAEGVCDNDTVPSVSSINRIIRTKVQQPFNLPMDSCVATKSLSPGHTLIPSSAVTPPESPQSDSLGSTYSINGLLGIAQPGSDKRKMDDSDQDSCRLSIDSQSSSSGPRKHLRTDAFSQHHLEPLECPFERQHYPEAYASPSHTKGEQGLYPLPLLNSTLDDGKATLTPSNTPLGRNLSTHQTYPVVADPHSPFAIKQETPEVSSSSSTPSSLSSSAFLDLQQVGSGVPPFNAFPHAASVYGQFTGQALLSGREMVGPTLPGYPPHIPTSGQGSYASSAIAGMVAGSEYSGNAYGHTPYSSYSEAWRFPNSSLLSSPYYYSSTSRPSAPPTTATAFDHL
Sequence of Cytochrome P450 2C19 (P33261 whole entry): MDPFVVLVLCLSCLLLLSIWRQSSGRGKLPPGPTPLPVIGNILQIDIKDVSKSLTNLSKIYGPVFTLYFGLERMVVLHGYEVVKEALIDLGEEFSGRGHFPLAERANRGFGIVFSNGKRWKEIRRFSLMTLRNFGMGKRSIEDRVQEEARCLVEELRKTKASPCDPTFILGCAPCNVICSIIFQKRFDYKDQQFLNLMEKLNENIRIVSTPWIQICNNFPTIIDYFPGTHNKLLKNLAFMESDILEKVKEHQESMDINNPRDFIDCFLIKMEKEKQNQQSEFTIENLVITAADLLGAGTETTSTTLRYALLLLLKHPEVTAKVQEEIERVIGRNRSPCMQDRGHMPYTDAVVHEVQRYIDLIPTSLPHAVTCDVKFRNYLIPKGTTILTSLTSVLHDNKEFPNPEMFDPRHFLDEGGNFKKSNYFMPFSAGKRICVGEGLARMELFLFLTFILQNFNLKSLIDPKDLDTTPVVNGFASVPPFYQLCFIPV
Sequence of Cytochrome P450 2C9 (P11712 whole entry): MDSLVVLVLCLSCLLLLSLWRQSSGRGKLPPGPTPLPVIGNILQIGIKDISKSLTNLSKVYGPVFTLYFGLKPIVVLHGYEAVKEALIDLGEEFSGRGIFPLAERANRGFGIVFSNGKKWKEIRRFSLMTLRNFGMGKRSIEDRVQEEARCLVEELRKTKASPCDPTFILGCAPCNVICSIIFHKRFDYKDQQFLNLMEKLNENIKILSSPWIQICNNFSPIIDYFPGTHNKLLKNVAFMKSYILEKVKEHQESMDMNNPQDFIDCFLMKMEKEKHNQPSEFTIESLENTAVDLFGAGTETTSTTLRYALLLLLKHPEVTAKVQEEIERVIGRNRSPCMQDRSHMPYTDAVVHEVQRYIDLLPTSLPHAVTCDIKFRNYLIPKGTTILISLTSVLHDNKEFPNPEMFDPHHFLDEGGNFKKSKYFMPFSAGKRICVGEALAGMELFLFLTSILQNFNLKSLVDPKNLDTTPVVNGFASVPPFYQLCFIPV
Sequence of Luciferin 4-monooxygenase (P08659 whole entry): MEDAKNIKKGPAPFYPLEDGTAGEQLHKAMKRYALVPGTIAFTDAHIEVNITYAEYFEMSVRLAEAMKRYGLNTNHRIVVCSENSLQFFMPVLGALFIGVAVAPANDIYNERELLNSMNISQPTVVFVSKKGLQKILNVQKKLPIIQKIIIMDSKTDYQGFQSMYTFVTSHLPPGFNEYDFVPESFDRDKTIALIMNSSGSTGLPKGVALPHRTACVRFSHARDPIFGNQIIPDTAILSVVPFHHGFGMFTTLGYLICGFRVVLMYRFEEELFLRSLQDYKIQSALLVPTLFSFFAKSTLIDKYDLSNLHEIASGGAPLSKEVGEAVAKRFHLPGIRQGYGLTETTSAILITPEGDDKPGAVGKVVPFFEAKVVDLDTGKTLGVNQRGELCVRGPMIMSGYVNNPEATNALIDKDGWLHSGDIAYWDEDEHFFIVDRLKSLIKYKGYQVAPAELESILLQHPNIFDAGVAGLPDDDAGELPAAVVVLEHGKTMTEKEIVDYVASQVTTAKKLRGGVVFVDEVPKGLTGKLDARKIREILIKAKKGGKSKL

Cc1ccc(S(=O)(=O)Nc2cccc(C(=O)NCC(c3ccccc3)N(C)C)c2)cc1F (stereo not drawn)
EC50 [1]: 5.31 µM (active) | EC50 [2]: 0.267 µM (active)

O=C1C(Cl)=C(N2CCN(c3ccccc3)CC2)C(=O)N1c1cccc(C(F)(F)F)c1
IC50 [3]: > 50 µM (inconclusive)

CCOc1ccc(CN2CCNC(=O)C2CC(=O)NCCc2ccccn2)cc1 (stereo not drawn)
EC50 [1]: 6.68 µM (active)

c1ccc(Cn2nnnc2C(c2cccnc2)N2CCN(C3CCCCC3)CC2)cc1 (stereo not drawn)
EC50 [1]: 1.68 µM (active)

O=C(NCCO)c1cc(-c2cc(F)c(F)cc2F)n[nH]1
IC50 [3]: > 10 µM (inconclusive)

Cc1cc(NC(=O)c2cccc(Oc3ccccc3)c2)[nH]n1
EC50 [4]: > 150 µM (inactive) | EC50 [5]: 1.87 µM (active)

CSc1ncc(Cl)c(C(=O)C(C#N)c2nc(O)c3cc(C)cc(C)c3n2)n1 (stereo not drawn)
EC50 [4]: 18.3 µM (active) | EC50 [5]: 2.48 µM (active)

Cc1cc(C)c(C)c(OCCCN(C)C)c1
EC50 [1]: 0.168 µM (active)

COc1ccc(OC)c(NC(=O)c2c3c(nc4ccccc24)CCC3)c1
EC50 [4]: > 150 µM (inactive) | EC50 [5]: 2.17 µM (active)

CCC(C)C1=CC(=Nc2c(C)n(C)n(-c3ccccc3)c2=O)C=C(C(C)CC)C1=O (stereo not drawn)
IC50 [6]: > 50 µM (not active)

CC1CCCN(C(=O)c2ccc(S(=O)(=O)N3CCC(c4nc5ccccc5s4)CC3)cc2)C1 (stereo not drawn)
AC50 [7]: 5.85 µM (active)

Cc1cc(OCCn2ccnc2)cc(C)c1Cl
EC50 [1]: 3.76 µM (active)

CC1(C)CC(=O)c2cc(C(=O)NCc3ccco3)c(=O)n(-c3ccc(Cl)cc3)c2C1
EC50 [1]: 6.68 µM (active)

COc1ccc(S(=O)(=O)N(C)C[C@H]2Oc3ccc(NC(=O)Nc4ccc(C(F)(F)F)cc4)cc3CC(=O)N([C@H](C)CO)C[C@@H]2C)cc1
AC50 (Paired box protein Pax-8): 11.9 µM (active)

NS(=O)(=O)c1ccc(/N=C/C2=C(O)c3ccccc3C2=O)cc1
IC50 [3]: > 100 µM (not active)

Cc1cccc(N2C(=O)C(Cl)=C(N3CCN(c4ccccc4)CC3)C2=O)c1
IC50 [3]: > 50 µM (inconclusive)

COc1ccc(N(C)C(=O)Nc2ccc3nsnc3c2)cc1
IC50 [6]: > 50 µM (not active)

O=C(NCCCN1CCN(c2cccc(Cl)c2)CC1)C1CCC(=O)N1Cc1ccccc1Cl (stereo not drawn)
EC50 [8]: > 112 µM (not active) | AC50 (Cytochrome P450 2C9): 15.8 µM (inconclusive) | EC50 [9]: > 112 µM (not active) | EC50 [2]: 2.99 µM (active) | AC50 (Cytochrome P450 1A2): 0.00631 µM (inconclusive) | AC50 (Cytochrome P450 2C19): 10 µM (inconclusive)

CC1CC(C)(C)N(C(=O)CN2C(=O)c3ccccc3C2=O)c2ccccc21 (stereo not drawn)
EC50 [1]: 5.96 µM (active) | EC50 [10]: 6.44 µM (active) | EC50 [2]: 4.22 µM (active)

C[C@@H]1CCCCO[C@@H](CN(C)C(=O)Nc2ccccc2)[C@H](C)CN([C@H](C)CO)C(=O)c2cc(NC(=O)Nc3ccc(C(F)(F)F)cc3)ccc2O1
AC50 (Paired box protein Pax-8): 3.07 µM (active)

O=C1C(Cl)=C(N2CCN(c3ncccn3)CC2)C(=O)N1c1ccc(C(F)(F)F)cc1
IC50 [3]: > 50 µM (inconclusive)

COc1ccc(NC(=O)Nc2ccc3c(c2)CC(=O)N([C@@H](C)CO)C[C@@H](C)[C@@H](CN(C)Cc2ccc(Oc4ccccc4)cc2)O3)cc1
AC50 (Paired box protein Pax-8): 25.3 µM (active)

Oc1cc(-c2ccccc2)c2ccccc2c1
EC50 [11]: 40.1 µM (active) | IC50 [6]: 14.4 µM (active)

CC(C)(C)[C@H]1C=C(C(=O)NCc2ccccc2)O[C@@H](OCc2ccc(CO)cc2)C1
EC50 [1]: 9.44 µM (active)

COc1ccc(F)cc1S(=O)(=O)Nc1cccnc1
IC50 [3]: > 100 µM (not active)

Cc1cc(C=C2C(=O)N(C)C(=S)N(C)C2=O)c(C)n1-c1cccnc1
IC50 [6]: > 50 µM (not active)
